Test results published in patent US6482858B1, “(−)-hydroxycitric acid for wound healing and immunomodulation” (priority 2001, dated 2002).
Read-outs that look alike come from different tables or passages of the source.

Legend:
[1] = cited from earlier work; for % Body H2O / % Ash, wet / % Fat, wet / % Protein, wet: mean; for % Body H2O: 52.6 mmol/kg diet, six weeks; for % Ash, wet / % Fat, wet / % Protein, wet: wet weight
[2] = target: cortisol receptors (Homo sapiens, UniProt P04150); details: cited from earlier work
Chain of cortisol receptors (P04150 whole entry): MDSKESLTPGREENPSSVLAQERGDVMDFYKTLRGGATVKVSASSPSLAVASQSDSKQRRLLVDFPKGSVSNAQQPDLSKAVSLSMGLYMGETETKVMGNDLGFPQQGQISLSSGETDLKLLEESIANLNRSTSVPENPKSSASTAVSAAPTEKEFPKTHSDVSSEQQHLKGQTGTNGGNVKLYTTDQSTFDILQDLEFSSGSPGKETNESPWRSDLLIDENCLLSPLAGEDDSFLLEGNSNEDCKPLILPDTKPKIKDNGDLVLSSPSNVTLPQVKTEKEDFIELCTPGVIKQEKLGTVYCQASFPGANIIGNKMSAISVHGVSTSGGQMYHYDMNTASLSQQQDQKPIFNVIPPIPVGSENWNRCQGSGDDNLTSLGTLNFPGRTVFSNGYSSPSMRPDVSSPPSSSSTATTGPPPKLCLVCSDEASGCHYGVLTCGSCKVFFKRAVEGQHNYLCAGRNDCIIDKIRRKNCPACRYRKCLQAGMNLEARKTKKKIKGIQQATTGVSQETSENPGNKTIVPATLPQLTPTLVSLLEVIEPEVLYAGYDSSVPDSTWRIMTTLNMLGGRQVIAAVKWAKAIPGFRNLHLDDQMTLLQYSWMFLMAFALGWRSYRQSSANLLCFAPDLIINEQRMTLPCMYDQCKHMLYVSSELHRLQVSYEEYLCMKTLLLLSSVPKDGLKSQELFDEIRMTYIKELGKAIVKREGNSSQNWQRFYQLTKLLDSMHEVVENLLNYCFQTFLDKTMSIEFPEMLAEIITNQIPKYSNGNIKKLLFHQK

[3] = Single-subject trial of potassium HCA: skin health and psoriasis; type: in vivo, human; details: middle-aged subject
Description: The results in the above examples led us to question whether HCA might be useful as a supplement for individuals not in need of weight loss and not under obvious stress. To this end, a middle-aged subject ingested approximately 2 to 3 grams HCA in the form of the potassium salt twice daily for 10 days. They were instructed to report on effects other than those which were to be expected, i.e., effects other than appetite control. Two quite interesting findings typical of re-regulation of corticoid metabolism emerged from this crude trial. […] These effects were similar in kind, although greater in degree, than this subject had experienced in the past when experimenting with relatively large dosages of melatonin (5 to 20 mg taken at bedtime) and, when much younger, amino acid supplementation designed to improve growth hormone release. We interpreted this finding as indicative of the normalization of melatonin and growth hormone metabolism. None of the side effects typical of elevated melatonin supplementation, such as morning grogginess or nasal congestion, were noted. Second, this subject noticed an improvement in their psoriasis during the last few days of the trial. In this subject's past experience, supplements which tended to improve their overall immune response and skin tone—including melatonin—at the same time tended to worsen their psoriasis. Therefore, this subject's experience with HCA was in line with the reports in the published literature regarding the condition as representative of corticoid and circadian dysregulation.

Question: With O=C([O-])CC(O)(C(=O)[O-])C(O)C(=O)[O-].[Na+].[Na+].[Na+] (stereo not drawn) [Tri-NaHCA, trisodium (−)-hydroxycitrate] as the compound, how does the “% Body H2O” value ([1]; Zucker lean) read?
Answer: Its value is 64.3%.

Question: What about the “% Ash, wet” value ([1]; Zucker lean) of the same compound?
Answer: Its value is 4.9/NA %.

Question: What about the “% Fat, wet” value ([1]; Zucker lean) of the same compound?
Answer: Its value is 8.05/NA %.

Question: And the “% Protein, wet” value ([1]; Zucker lean)?
Answer: The value was 22.0/NA %.

Question: What about the “% Body H2O” value ([1]; Zucker obese) of the same compound?
Answer: Its value is 25.8%.

Question: What about the “% Ash, wet” value ([1]; Zucker obese) of the same compound?
Answer: The value was 2.6/NA %.

Question: And the “% Fat, wet” value ([1]; Zucker obese)?
Answer: Its value is 59.8/NA %.

Question: What about the “% Protein, wet” value ([1]; Zucker obese) of the same compound?
Answer: Its value is 11.8/NA %.

Question: And the “Carcass protein and ash/mineral content compared with control” value ([1]; lean and obese animals)?
Answer: Its value is “increased”.

Question: With CC#C[C@]1(O)CC[C@H]2[C@@H]3CCC4=CC(=O)CCC4=C3[C@@H](c3ccc(N(C)C)cc3)C[C@@]21C [RU 486, mifepristone] as the compound, how does the “Plasma ACTH and cortisol” value ([2]; 10 mg/kg.day oral, 7-14 days) read?
Answer: Its value is “marked compensatory elevations”.

Question: And the “Subjects who developed generalized exanthem (skin rash)” value ([2]; 10 mg/kg.day oral, after 9 days of treatment)?
Answer: Its value is 8 of the 11.

Question: And the “Enhancement of immune function” value ([2]; high doses, normal volunteers, 7-14 days)?
Answer: Its value is “does not result in measurable enhancement of immune function”.

Question: Which “Side effects typical of elevated melatonin supplementation (morning grogginess, nasal congestion)” value ([3]; 10 days) does the source give for O=C(O)CC(O)(C(=O)O)C(O)C(=O)O (single isomer, unassigned; (-)) [HCA, (−)-hydroxycitric acid] here?
Answer: The value was “None”.

Question: What about the Psoriasis ([3]; approximately 2 to 3 grams twice daily for 10 days, last few days of the trial) of the same compound?
Answer: Its Psoriasis is “improvement”.

Question: What about the Skin tone ([3]; approximately 2 to 3 grams twice daily, before the first week had passed) of the same compound?
Answer: Its Skin tone is “improved markedly”.
